Among the data in patent publication US20240254082A1, “Substituted Isoindoline-1, 3-diketone PDE4 Inhibitor and Pharmaceutical Application Thereof” (SUZHOU INTRAGRAND PHARMA CO., LTD, priority 2021, published 2024) are inhibition and IC50 values, retold here.

Assay [1] has as its target PDE1C (Homo sapiens, UniProt Q14123). The experiment in a line: Selective inhibitory activity assay, PDE1C. It counts as biochemical. The conditions noted are these: read-out: Inhibition rate (%) of PDE1C. On the procedure:
(§1) 7. Selective inhibitory activity assay for PDE1, 2, 3, 5, 7, 10 and 11 enzymes
(§2) The selective specificity of compounds for PDE4 was assessed by assaying single concentrations of the compounds. For example, PDE1a enzyme, PDElc enzyme, PDE2a enzyme, PDE3a enzyme, PDE3b enzyme, PDE5a1 enzyme, PDE7a enzyme, PDE7b enzyme, PDE10a1 enzyme and PDE11a4 enzyme were tested. The selective inhibitory effects of different compounds on the enzymatic activities of PDEIC, PDE2A, PDE3B, PDE5A1, PDE7A, and PDE10A1 at concentrations of 10 μM and 1 μM, respectively, are shown in the table below: […]

Assay [2] concerns the target PDE2A (Homo sapiens, UniProt O00408). Briefly: Selective inhibitory activity assay, PDE2A. It counts as biochemical. The conditions noted are these: read-out: Inhibition rate (%) of PDE2A. On the procedure:
as §1, §2

For assay [3], the target named is PDE3B (Homo sapiens, UniProt Q13370). Briefly: Selective inhibitory activity assay, PDE3B. It counts as biochemical. Particulars: read-out: Inhibition rate (%) of PDE3B. On the procedure:
as §1, §2

Assay [4] concerns the target PDE5A1 (Homo sapiens, UniProt O76074). The experiment in a line: Selective inhibitory activity assay, PDE5A1. Particulars: read-out: Inhibition rate (%) of PDE5A1. It counts as biochemical. On the procedure:
as §1, §2

Assay [5] has as its target PDE7A (Homo sapiens, UniProt Q13946). Briefly: Selective inhibitory activity assay, PDE7A. It counts as biochemical. The conditions noted are these: read-out: Inhibition rate (%) of PDE7A. On the procedure: as §1, §2
For assay [6], the target named is PDE10A1 (Homo sapiens, UniProt Q9Y233). Briefly: Selective inhibitory activity assay, PDE10A1. It counts as biochemical. The conditions noted are these: read-out: Inhibition rate (%) of PDE10A1. On the procedure:
as §1, §2

The subject of assay [7] is TNF-α. The experiment in a line: Inhibition of TNF-α induced in human peripheral blood mononuclear cells. It counts as cell-based. The conditions noted are these: read-out: IC50 (nM), cytokine TNF-α.
In assay [8] the test system is IL-2. Briefly: Inhibition of IL-2 induced in human peripheral blood mononuclear cells. It counts as cell-based. Particulars: human PBMC, stimulus SEB; read-out: IC50 (nM), cytokine IL-2. On the procedure:
8. Inhibitory assay of inflammatory factors TNF-α, IL-2, INF-γ
Determination of TNF-α, IL-2 and INF-γ induced by LPS/SEB in human peripheral blood mononuclear cells:
1. The purchased PBMC frozen cells were thawed at 37° C., transferred to RMPI1640 medium, and incubated overnight at 37° C. in an incubator containing 5% of CO2.
2. The next day, the cells were planked at 2×10^5 cells/well, with 100 μL per well.
4. LPS stimulus was added to each well at a final concentration of 10 ng/ml.
5. Incubation was carried out overnight at […] in an incubator containing 5% of CO2.
6. On the third day, the cell culture supernatant was collected, and cytokine assay was performed using an MSD method.

Assay [9] deals with INF-γ. Briefly: Inhibition of INF-γ induced in human peripheral blood mononuclear cells. It counts as cell-based.
In assay [10] the target is PDE4D3 (Homo sapiens, UniProt Q08499). The experiment in a line: Inhibition assay of PDE4D3 enzyme (TR-FRET kit). It counts as biochemical. On the procedure: 2. Inhibition assay of PDE4D3 enzyme:
(§3) Materials and Instruments:
FAM substrate: A stock solution of 20 μM FAM substrate was diluted to 200 nM with PDE assay buffer. 12.5 μL of the diluted substrate was added to each reaction well.
(§4) 5 μL of the compound stock solution was added to 45 μL of DMSO to prepare a 1 mM diluent. 5 μL of the 1 mM diluent was added to 45 μL of PDE assay buffer to prepare a gradient dilution starting point. Then, according to the method of adding 5 μL of the previous concentration solution to 15 μL of PDE assay buffer, gradient dilution was carried out for 9 times to prepare compound working solutions with 10 concentrations. The working solutions were added to compound wells at 2.5 μL/well.
PDE4D3: 0.054 μL of a PDE4D3 recombinase stock solution was added to 1500 μL of PDE buffer, and the mixture was added to all compound wells and positive control wells at 10 μL/well. 10 μL of PDE assay buffer was added to substrate control wells.
Binding solution: 3750 μL of binding buffer A and 3750 μL of binding buffer B were mixed well. Then, 150 μL of a binder was added into the mixture and mixed well. 7.5 μL of a Tb donor was added and mixed well. The obtained mixture was added to all wells at 50 μL/well.
S520=Read value of sample 520 nm
S490=Read value of sample 490 nm
Tb520=Read value of Tb only 520 nm
Tb490=Read value of Tb only 490 nm
FRETp=Positive control FRET
FRETsub=Substrate control FRET.
For orientation: TR-FRET usually uses a lanthanide donor and a delayed reading to cut background.

Assay [11] has as its target T1, PDE4A1 (Homo sapiens, UniProt P27815).
T1 construct: purchased BPS 60340
Briefly: Inhibition assay of PDE4A1 enzyme (FP kit). It counts as biochemical. On the procedure: 3. Inhibition assay of PDE4A1 enzyme:
as §3
(§5) FAM substrate: 25 μL of a FAM substrate stock solution was added into 2500 μL of PDE assay buffer. 25 μL of the diluted substrate was added to each reaction well.
(§6) 5 μL of the compound stock solution was added to 45 μL of DMSO to prepare a 1 mM diluent. 5 μL of the 1 mM diluent was added to 45 μL of PDE assay buffer to prepare a gradient dilution starting point. Then, according to the method of adding 5 μL of the previous concentration solution to 15 μL of PDE assay buffer, gradient dilution was carried out for 9 times to prepare compound working solutions with 10 concentrations. The working solutions were added to compound wells at 5 μL/well.
PDE4A1: First, a PDE4A1 stock solution was diluted by 100 times to a concentration of 4.9 ng/μL, 1.8 μL of the diluent was added to 2200 μL of PDE assay buffer, and the mixture was added to all compound wells and positive control wells at 20 μL/well. 20 μL of PDE assay buffer was added to substrate control wells.
Binding solution: 95 μL of binding buffer was added into 9.5 mL of binder diluent, and then mixed well. The obtained mixture was added to all wells at 100 μL/well.
(§7) FPsub=Substrate control FP.

The target in assay [12] is T2, PDE4B2 (Homo sapiens, UniProt Q07343).
T2 construct: purchased BPS 60343
Briefly: Inhibition assay of PDE4B2 enzyme (FP kit). It counts as biochemical. On the procedure: 4. Inhibition assay of PDE4B2 enzyme:
as §3, §5, §6
PDE4B2: First, a PDE4B2 stock solution was diluted by 100 times to a concentration of 5.2 ng/μL, 3.2 μL of the diluent was added to 2200 μL of PDE assay buffer, and the mixture was added to all compound wells and positive control wells at 20 μL/well. 20 μL of PDE assay buffer was added to substrate control wells.
Binding solution: 95 μL of binder was added into 9.5 mL of binder diluent, and then mixed well. The obtained mixture was added to all wells at 100 μL/well.
as §7

Assay [13] has as its target T3, PDE4C1 (Homo sapiens, UniProt Q08493).
T3 construct: purchased BPS 60384
Briefly: Inhibition assay of PDE4C1 enzyme (FP kit). It counts as biochemical. On the procedure:
5. Inhibition assay of PDE4C1 enzyme:
as §3
FAM substrate: 12.5 μL of a FAM substrate stock solution was added into 1250 μL of PDE assay buffer. 12.5 μL of the diluted substrate was added to each reaction well.
as §4
PDE4C1: First, a PDE4C1 stock solution was diluted by 100 times to a concentration of 3.2 ng/μL, 13.75 μL of the diluent was added to 1100 μL of PDE assay buffer, and the mixture was added to all compound wells and positive control wells at 10 μL/well. 10 μL of PDE assay buffer was added to substrate control wells.
Binding solution: 50 μL of binder was added into 5 mL of binder diluent, and then mixed well. The obtained mixture was added to all wells at 50 μL/well.
as §7

The mark [14] stands for this setting: Homo sapiens, PBMC, read-out: IC50 (nM), cytokine INF-r, human PBMC, stimulus SEB.
[15] abbreviates: human PBMC, stimulus LPS, read-out: IC50 (nM), cytokine INF-r.

SMILES strings stand for the structures. Like-named read-outs stand apart in the source and are kept apart here.

Chain of PDE4D3 (Q08499 1-673 isoform Q08499-2): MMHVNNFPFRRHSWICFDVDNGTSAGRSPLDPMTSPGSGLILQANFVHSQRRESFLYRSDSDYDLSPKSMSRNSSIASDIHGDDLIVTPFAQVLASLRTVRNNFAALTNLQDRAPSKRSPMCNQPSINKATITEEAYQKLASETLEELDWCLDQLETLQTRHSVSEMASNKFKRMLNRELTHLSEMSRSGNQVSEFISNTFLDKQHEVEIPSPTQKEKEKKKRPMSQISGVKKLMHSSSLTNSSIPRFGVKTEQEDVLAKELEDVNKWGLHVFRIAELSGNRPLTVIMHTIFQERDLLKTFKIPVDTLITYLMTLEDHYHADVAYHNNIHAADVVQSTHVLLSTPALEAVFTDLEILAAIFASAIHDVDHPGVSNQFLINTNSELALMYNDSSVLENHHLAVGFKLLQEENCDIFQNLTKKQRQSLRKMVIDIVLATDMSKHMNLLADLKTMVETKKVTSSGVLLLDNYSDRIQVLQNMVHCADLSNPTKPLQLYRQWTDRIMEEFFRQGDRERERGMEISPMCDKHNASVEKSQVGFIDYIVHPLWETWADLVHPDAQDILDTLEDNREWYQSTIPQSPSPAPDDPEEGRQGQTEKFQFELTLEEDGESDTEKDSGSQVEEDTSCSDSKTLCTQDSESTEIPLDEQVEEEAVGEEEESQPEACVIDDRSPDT
Chain of PDE10A1 (Q9Y233 1-779 isoform Q9Y233-1, species assumed): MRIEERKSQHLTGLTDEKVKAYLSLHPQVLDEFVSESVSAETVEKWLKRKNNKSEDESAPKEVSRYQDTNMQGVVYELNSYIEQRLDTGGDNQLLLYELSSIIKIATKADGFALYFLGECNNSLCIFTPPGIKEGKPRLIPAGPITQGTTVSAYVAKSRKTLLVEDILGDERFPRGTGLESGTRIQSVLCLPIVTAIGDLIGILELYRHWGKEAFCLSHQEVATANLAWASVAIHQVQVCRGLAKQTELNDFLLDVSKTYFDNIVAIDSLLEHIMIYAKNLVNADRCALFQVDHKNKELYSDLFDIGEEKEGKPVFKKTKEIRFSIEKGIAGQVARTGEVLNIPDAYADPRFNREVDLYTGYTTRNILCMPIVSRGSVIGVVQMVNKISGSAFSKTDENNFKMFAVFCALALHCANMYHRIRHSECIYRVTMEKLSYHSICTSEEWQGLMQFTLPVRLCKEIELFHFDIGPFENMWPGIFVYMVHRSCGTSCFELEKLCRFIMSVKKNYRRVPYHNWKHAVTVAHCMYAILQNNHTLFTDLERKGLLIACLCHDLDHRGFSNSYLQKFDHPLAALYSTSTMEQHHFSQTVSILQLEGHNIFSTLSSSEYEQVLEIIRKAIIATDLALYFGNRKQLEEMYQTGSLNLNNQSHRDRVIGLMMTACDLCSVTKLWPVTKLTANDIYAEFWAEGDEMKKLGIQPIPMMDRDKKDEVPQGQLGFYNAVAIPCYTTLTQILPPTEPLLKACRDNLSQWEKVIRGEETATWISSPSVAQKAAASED
Chain of PDE7A (Q13946 whole entry, species assumed): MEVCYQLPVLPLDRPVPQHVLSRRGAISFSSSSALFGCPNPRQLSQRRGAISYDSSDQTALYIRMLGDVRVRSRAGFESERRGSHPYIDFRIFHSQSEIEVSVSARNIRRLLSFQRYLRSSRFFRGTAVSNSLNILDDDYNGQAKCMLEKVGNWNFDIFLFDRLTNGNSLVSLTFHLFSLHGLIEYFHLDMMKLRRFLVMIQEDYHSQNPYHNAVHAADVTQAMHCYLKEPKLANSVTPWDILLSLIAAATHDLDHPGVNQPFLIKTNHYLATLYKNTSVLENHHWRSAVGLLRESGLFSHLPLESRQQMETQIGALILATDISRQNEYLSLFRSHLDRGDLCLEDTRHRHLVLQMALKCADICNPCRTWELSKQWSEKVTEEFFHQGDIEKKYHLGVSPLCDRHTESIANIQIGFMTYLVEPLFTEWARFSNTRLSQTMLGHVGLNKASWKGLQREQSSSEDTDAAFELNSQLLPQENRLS
Chain of PDE3B (Q13370 whole entry, species assumed): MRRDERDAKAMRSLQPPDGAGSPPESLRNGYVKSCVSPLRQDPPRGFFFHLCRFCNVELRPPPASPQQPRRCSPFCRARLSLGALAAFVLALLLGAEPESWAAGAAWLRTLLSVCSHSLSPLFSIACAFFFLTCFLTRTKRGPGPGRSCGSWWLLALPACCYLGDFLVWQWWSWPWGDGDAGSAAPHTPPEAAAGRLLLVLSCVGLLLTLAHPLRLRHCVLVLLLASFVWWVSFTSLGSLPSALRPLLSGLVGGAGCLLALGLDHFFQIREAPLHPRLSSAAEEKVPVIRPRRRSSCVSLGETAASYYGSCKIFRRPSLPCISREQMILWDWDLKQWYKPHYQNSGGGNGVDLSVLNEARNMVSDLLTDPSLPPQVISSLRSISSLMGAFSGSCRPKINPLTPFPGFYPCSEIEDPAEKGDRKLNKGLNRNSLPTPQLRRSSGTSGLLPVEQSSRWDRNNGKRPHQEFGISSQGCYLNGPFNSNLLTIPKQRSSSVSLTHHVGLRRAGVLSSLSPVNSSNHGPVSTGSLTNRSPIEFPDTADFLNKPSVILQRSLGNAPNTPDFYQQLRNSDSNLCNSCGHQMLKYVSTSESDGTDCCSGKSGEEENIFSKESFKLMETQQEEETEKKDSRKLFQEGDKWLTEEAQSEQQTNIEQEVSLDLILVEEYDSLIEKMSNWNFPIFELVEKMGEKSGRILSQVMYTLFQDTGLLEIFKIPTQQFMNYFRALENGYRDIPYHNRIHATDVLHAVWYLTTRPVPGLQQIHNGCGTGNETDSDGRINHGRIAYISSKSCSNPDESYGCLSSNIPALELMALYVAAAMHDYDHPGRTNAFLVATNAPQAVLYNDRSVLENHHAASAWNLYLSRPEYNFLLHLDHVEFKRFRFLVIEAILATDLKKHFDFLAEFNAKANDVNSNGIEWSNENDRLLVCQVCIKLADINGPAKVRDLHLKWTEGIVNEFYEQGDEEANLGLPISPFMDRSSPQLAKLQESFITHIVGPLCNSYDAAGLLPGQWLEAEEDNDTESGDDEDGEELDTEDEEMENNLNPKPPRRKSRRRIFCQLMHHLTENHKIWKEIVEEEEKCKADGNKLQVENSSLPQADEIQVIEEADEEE
Chain of PDE1C (Q14123 whole entry, species assumed): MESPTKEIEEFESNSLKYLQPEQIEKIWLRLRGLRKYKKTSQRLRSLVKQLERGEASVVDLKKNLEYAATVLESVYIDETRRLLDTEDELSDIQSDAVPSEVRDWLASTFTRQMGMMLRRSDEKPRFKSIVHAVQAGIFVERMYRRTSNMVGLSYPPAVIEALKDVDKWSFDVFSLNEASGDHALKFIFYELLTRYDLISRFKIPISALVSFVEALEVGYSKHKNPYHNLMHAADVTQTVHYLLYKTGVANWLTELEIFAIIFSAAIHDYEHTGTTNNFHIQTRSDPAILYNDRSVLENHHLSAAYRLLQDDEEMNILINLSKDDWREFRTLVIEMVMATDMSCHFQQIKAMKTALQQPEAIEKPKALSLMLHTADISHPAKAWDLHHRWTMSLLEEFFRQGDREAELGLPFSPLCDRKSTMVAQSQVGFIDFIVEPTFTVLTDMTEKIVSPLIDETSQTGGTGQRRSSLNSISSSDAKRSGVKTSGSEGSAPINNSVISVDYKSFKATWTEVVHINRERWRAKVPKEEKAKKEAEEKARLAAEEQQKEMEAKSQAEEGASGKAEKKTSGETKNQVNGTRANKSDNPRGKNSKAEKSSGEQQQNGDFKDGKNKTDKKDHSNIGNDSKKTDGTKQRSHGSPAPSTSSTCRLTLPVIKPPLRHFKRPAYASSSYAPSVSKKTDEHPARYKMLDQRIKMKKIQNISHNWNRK
T2 sequence (Q07343 1-564 isoform Q07343-2): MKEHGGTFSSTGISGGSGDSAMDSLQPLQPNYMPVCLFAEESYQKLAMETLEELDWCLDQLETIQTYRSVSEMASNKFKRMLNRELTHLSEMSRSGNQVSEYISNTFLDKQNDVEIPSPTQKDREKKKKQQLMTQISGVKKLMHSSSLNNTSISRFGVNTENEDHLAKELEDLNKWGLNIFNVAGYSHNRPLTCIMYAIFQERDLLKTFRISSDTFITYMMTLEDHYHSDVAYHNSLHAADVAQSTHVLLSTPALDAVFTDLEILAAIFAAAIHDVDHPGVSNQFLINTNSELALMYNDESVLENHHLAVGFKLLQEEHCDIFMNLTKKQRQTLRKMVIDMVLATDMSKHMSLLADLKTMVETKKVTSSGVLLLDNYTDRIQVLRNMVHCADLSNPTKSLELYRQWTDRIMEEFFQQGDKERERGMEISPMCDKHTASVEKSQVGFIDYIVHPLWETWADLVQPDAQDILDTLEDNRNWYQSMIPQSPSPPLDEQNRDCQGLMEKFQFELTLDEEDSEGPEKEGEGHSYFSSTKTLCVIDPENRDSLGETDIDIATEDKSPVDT
T1 sequence (P27815 1-647 isoform P27815-4): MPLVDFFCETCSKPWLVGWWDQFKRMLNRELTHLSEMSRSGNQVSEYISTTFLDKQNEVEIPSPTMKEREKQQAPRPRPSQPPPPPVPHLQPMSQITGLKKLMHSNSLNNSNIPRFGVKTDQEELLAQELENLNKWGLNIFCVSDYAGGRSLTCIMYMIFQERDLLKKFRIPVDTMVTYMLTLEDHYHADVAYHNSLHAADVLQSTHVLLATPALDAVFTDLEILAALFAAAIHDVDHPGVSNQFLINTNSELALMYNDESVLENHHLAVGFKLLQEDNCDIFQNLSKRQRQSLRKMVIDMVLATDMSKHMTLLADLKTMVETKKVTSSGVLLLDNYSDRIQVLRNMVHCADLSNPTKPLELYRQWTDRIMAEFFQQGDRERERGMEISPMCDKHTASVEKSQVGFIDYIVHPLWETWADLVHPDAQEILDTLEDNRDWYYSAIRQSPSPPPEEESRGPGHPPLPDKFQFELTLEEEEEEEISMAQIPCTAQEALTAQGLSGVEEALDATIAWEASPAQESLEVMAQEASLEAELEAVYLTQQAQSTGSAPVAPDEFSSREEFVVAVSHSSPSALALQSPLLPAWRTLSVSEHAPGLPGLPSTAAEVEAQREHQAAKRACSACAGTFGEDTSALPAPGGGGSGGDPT

As to `CCOc1cc([C@@H](CS(C)(=O)=O)N2C(=O)c3cccc(NC(C)=O)c3C2=O)ccc1OC` [Example 0, Apremilast, reference compound], the inhibition – broadly, the relative decrease from the control value, in per cent – at 1 µM was 7.77% in [1]; 2.95% in assay [2]; 2.44% in assay [3]; 3.97% in assay [4]; 9.41% in [5]; 0% in assay [6]. The inhibition at 10 µM in assay [1] is 37.1%; in [2], 2.35%; in assay [3] it was 1.56%; in assay [5], 11.1%; in assay [6], -2.75%. In addition, the IC50 – broadly, the concentration that gives 50% inhibition – in [7] (Homo sapiens, PBMC) is 63.8 nM; in assay [8], 110 nM; in [9] (Homo sapiens, PBMC, read-out: IC50 (nM), cytokine INF-r, human PBMC, stimulus LPS), 15.4 nM; in [9] (setting [14]), 77.8 nM.

Regarding `CCCCCc1ccc(NC(=O)CCCCl)c2c1C(=O)N([C@H](CS(C)(=O)=O)c1ccc(OC)c(OCC)c1)C2=O` [Example 5, (S)-2-[1-(3-ethoxy-4-methoxyphenyl)-2-alkylsulfonylethyl]-4-(γ-chlorobutyramido)-7-pentyl isoindoline-1,3-diketone], the IC50 in assay [10] is 10 to 50 nM; in assay [11], less than 100 nM; in assay [12] it was less than 100 nM; in assay [13], 200 to 500 nM. Also, the inhibition at 1 µM in assay [1] worked out at 8.26%; in assay [2] it was 0.83%; in assay [3], 0.06%; in [4], 0.66%; in assay [5], 0%; in [6] it was 2.21%. The inhibition at 10 µM in [1] was 30.8%; in assay [2], 9.01%; in [3], -0.69%; in assay [4], 8.39%; in assay [5] it was 1.94%; in assay [6], 5.46%.

With `CCCCCc1ccc(NC(C)=O)c2c1C(=O)N([C@H](CS(C)(=O)=O)c1ccc(OC)c(OCC)c1)C2=O` [Example 9, (S)-2-[1-(3-ethoxy-4-methoxyphenyl)-2-alkylsulfonylethyl]-4-acetamido-7-pentyl isoindoline-1,3-diketone], the IC50 is less than 5 nM in assay [10]; less than 100 nM in assay [11]; less than 100 nM in [12]; less than 200 nM in [13]; 0.82 nM in [7] (human PBMC, stimulus LPS); 0.44 nM in [8]. Moreover, the IC50 in assay [9] (setting [14]) worked out at 1.82 nM; in [9] (setting [15]) it was 0.43 nM. The inhibition at 1 µM was 0.49% in assay [1]; 5.83% in assay [2]; 5.44% in [3]; 1.99% in [4]; 20.8% in assay [5]; 0% in assay [6]. In addition, the inhibition at 10 µM in [1] is 30.6%; in assay [2] it was 12.2%; in [3], 0.81%; in [4] it was 5.74%; in assay [5], 44.5%; in [6], 10.1%.

Regarding `CCCCCc1ccc(NC(=O)CC)c2c1C(=O)N([C@H](CS(C)(=O)=O)c1ccc(OC)c(OCC)c1)C2=O` [Example 13, (S)-2-[1-(3-ethoxy-4-methoxyphenyl)-2-alkylsulfonylethyl]-4-propanamido-7-pentyl isoindoline-1,3-diketone], the IC50 in assay [10] lay within 10 to 50 nM; in [11], 100 to 200 nM; in [12] it was 100 to 200 nM; in assay [13] it was 200 to 500 nM. The inhibition at 1 µM is 5.34% in [1]; 0.08% in assay [2]; 3.31% in assay [3]; 14.1% in [4]; 0% in assay [5]; 16.3% in assay [6]. Besides, the inhibition at 10 µM in assay [1] was 51.7%; in assay [2], 13.8%; in assay [3], 0.94%; in [4] it was 20.3%; in assay [5], 9.96%; in assay [6], -26.7%.

Consider `O=C(Nc1c(Cl)cncc1Cl)c1ccc(OC(F)F)c(OCC2CC2)c1` [Roflumilast], for which the IC50 is 2.83 nM in [7] (human PBMC, stimulus LPS); 14.7 nM in [8]; 10.9 nM in [9] (setting [14]); 1.4 nM in assay [9] (setting [15]).
